Holding throughout (format): in vivo
The subject of assay [1] is Echinochloa crusgalli. The assay is described as follows: Post-emergence test experiment, Echinochloa crusgalli. The following applies: 1000 g a.i./ha, 3 weeks in greenhouse, fresh weight inhibition. Put shortly: (§1)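 Weed and crop seeds were sown in soil-filled pots, covered with 0.5-2 cm soil and grown in a greenhouse. Plants were sprayed at the 2-3 leaf stage, 2 weeks after sowing. Compounds were in acetone with tween-80 plus methyl oleate emulsible concentrate synergist (1.5 liters per hectare). Fresh weight inhibition was scored after 3 weeks.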

In assay [2] the test system is Digitaria sanguinalis. The assay is described as follows: Post-emergence test experiment, Digitaria sanguinalis. The settings on record: 1000 g a.i./ha, 3 weeks in greenhouse, fresh weight inhibition. The procedure, abridged: as §1
The subject of assay [3] is Monocotyledonous and dicotyledonous weed seeds and main crop seeds. The assay is described as follows: Post-emergence test experiment, other weeds and crops (Table 4, 1000 g a.i./ha). The settings on record: 3 weeks in greenhouse, fresh weight inhibition. The procedure, abridged:
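Weed and crop seeds (wheat, corn, rice, soybean, cotton, oilseed, millet, sorghum) sown in soil pots in a greenhouse and sprayed at 2-3 leaf stage, 2 weeks after sowing. Compound in acetone/tween-80 with methyl oleate concentrate (1.5 L/ha) as synergist. Effect recorded as fresh-weight growth inhibition rate.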

Results on eleven compounds are retold here after patent publication US12304890B2, “R-type pyridyloxycarboxylic acid, salt and ester derivative thereof, and preparation method therefor, and herbicidal composition and application thereof” (Qingdao Kingagroot Chemical Compound Co., Ltd., priority 2018, dated 2025).

`CCCCCCCCCCCCSC(=O)[C@@H](C)Oc1nc(F)c(Cl)c(N)c1Cl` [Compound 2-236]: the “Activity level (growth inhibition rate), Echinochloa crusgalli” value in assay [1] is given as 5 (Level 5: the growth inhibition rate is greater than 85%). The “Activity level (growth inhibition rate), Digitaria sanguinalis” value in assay [2] is 5 (Level 5: the growth inhibition rate is greater than 85%). Moreover, in assay [3], the “Activity level (growth inhibition rate), Abutilon theophrasti Medic.” value is given as 5 (Level 5: the growth inhibition rate is greater than 85%); the “Activity level (growth inhibition rate), Galium aparine” value was 5 (Level 5: the growth inhibition rate is greater than 85%); the “Activity level (growth inhibition rate), Monochoria Vaginalis” value is listed as 5 (Level 5: the growth inhibition rate is greater than 85%).
Regarding `CC(Oc1nc(F)c(Cl)c(N)c1Cl)C(=O)OC1CC1` (stereo not shown) [Compound 2-263], in assay [1], the “Activity level (growth inhibition rate), Echinochloa crusgalli” value is recorded as 5 (Level 5: the growth inhibition rate is greater than 85%). In assay [2], the “Activity level (growth inhibition rate), Digitaria sanguinalis” value was 5 (Level 5: the growth inhibition rate is greater than 85%). Further, in assay [3], the “Activity level (growth inhibition rate), Abutilon theophrasti Medic.” value is recorded as 5 (Level 5: the growth inhibition rate is greater than 85%); the “Activity level (growth inhibition rate), Galium aparine” value was 5 (Level 5: the growth inhibition rate is greater than 85%); the “Activity level (growth inhibition rate), Monochoria Vaginalis” value is 5 (Level 5: the growth inhibition rate is greater than 85%).
Turning to `CC(Oc1nc(F)c(Cl)c(N)c1Cl)C(=O)OC1CCC1` (stereo not shown) [Compound 2-264], the “Activity level (growth inhibition rate), Echinochloa crusgalli” value in assay [1] is on record as 5 (Level 5: the growth inhibition rate is greater than 85%). Further, the “Activity level (growth inhibition rate), Digitaria sanguinalis” value in assay [2] is listed as 5 (Level 5: the growth inhibition rate is greater than 85%). Further, in assay [3], the “Activity level (growth inhibition rate), Abutilon theophrasti Medic.” value was 5 (Level 5: the growth inhibition rate is greater than 85%); the “Activity level (growth inhibition rate), Galium aparine” value is recorded as 5 (Level 5: the growth inhibition rate is greater than 85%); the “Activity level (growth inhibition rate), Monochoria Vaginalis” value was 5 (Level 5: the growth inhibition rate is greater than 85%).
Turning to `CC(Oc1nc(F)c(Cl)c(N)c1Cl)C(=O)OC1CCCC1` (stereo not shown) [Compound 2-265], the “Activity level (growth inhibition rate), Echinochloa crusgalli” value in assay [1] was 5 (Level 5: the growth inhibition rate is greater than 85%). Also, the “Activity level (growth inhibition rate), Digitaria sanguinalis” value in assay [2] is reported as 5 (Level 5: the growth inhibition rate is greater than 85%). In assay [3], the “Activity level (growth inhibition rate), Abutilon theophrasti Medic.” value is listed as 5 (Level 5: the growth inhibition rate is greater than 85%); the “Activity level (growth inhibition rate), Galium aparine” value is 5 (Level 5: the growth inhibition rate is greater than 85%); the “Activity level (growth inhibition rate), Monochoria Vaginalis” value is recorded as 5 (Level 5: the growth inhibition rate is greater than 85%).
In the case of `CC(Oc1nc(F)c(Cl)c(N)c1Cl)C(=O)SC1CCCCC1` (stereo not shown) [Compound 2-266], the “Activity level (growth inhibition rate), Echinochloa crusgalli” value in assay [1] is on record as 5 (Level 5: the growth inhibition rate is greater than 85%). Further, in assay [2], the “Activity level (growth inhibition rate), Digitaria sanguinalis” value is 5 (Level 5: the growth inhibition rate is greater than 85%). Besides, in assay [3], the “Activity level (growth inhibition rate), Abutilon theophrasti Medic.” value was 5 (Level 5: the growth inhibition rate is greater than 85%); the “Activity level (growth inhibition rate), Galium aparine” value was 5 (Level 5: the growth inhibition rate is greater than 85%); the “Activity level (growth inhibition rate), Monochoria Vaginalis” value is 5 (Level 5: the growth inhibition rate is greater than 85%).
On to `CC(Oc1nc(F)c(Cl)c(N)c1Cl)C(=O)OCC#N` (stereo not shown) [Compound 2-267], for which the “Activity level (growth inhibition rate), Echinochloa crusgalli” value in assay [1] is 5 (Level 5: the growth inhibition rate is greater than 85%). For the same compound, in assay [2], the “Activity level (growth inhibition rate), Digitaria sanguinalis” value is 5 (Level 5: the growth inhibition rate is greater than 85%). In assay [3], the “Activity level (growth inhibition rate), Abutilon theophrasti Medic.” value is 5 (Level 5: the growth inhibition rate is greater than 85%); the “Activity level (growth inhibition rate), Galium aparine” value was 5 (Level 5: the growth inhibition rate is greater than 85%); the “Activity level (growth inhibition rate), Monochoria Vaginalis” value is on record as 5 (Level 5: the growth inhibition rate is greater than 85%).
Regarding `CC(Oc1nc(F)c(Cl)c(N)c1Cl)C(=O)OC[N+](=O)[O-]` (stereo not shown) [Compound 2-268], the “Activity level (growth inhibition rate), Echinochloa crusgalli” value in assay [1] was 5 (Level 5: the growth inhibition rate is greater than 85%). The “Activity level (growth inhibition rate), Digitaria sanguinalis” value in assay [2] is on record as 5 (Level 5: the growth inhibition rate is greater than 85%). Further, in assay [3], the “Activity level (growth inhibition rate), Abutilon theophrasti Medic.” value is reported as 5 (Level 5: the growth inhibition rate is greater than 85%); the “Activity level (growth inhibition rate), Galium aparine” value is 5 (Level 5: the growth inhibition rate is greater than 85%); the “Activity level (growth inhibition rate), Monochoria Vaginalis” value is reported as 5 (Level 5: the growth inhibition rate is greater than 85%).
Turning to `COCCOC(=O)C(C)Oc1nc(C)c(Cl)c(N)c1Cl` (stereo not shown) [Compound 2-270], the “Activity level (growth inhibition rate), Echinochloa crusgalli” value in assay [1] is 5 (Level 5: the growth inhibition rate is greater than 85%). Also, the “Activity level (growth inhibition rate), Digitaria sanguinalis” value in assay [2] was 5 (Level 5: the growth inhibition rate is greater than 85%). In assay [3], the “Activity level (growth inhibition rate), Abutilon theophrasti Medic.” value is listed as 5 (Level 5: the growth inhibition rate is greater than 85%); the “Activity level (growth inhibition rate), Galium aparine” value is 5 (Level 5: the growth inhibition rate is greater than 85%); the “Activity level (growth inhibition rate), Monochoria Vaginalis” value is reported as 5 (Level 5: the growth inhibition rate is greater than 85%).
`COCCCSC(=O)C(C)Oc1nc(F)c(Cl)c(N)c1Cl` (stereo not shown) [Compound 2-272]: the “Activity level (growth inhibition rate), Echinochloa crusgalli” value in assay [1] was 5 (Level 5: the growth inhibition rate is greater than 85%). Further, in assay [2], the “Activity level (growth inhibition rate), Digitaria sanguinalis” value was 5 (Level 5: the growth inhibition rate is greater than 85%). In assay [3], the “Activity level (growth inhibition rate), Abutilon theophrasti Medic.” value is recorded as 5 (Level 5: the growth inhibition rate is greater than 85%); the “Activity level (growth inhibition rate), Galium aparine” value was 5 (Level 5: the growth inhibition rate is greater than 85%); the “Activity level (growth inhibition rate), Monochoria Vaginalis” value is recorded as 5 (Level 5: the growth inhibition rate is greater than 85%).
Turning to `C=CCOC(=O)C(C)Oc1nc(F)c(Cl)c(N)c1Cl` (stereo not shown) [Compound 2-273], the “Activity level (growth inhibition rate), Echinochloa crusgalli” value in assay [1] is 5 (Level 5: the growth inhibition rate is greater than 85%). In addition, the “Activity level (growth inhibition rate), Digitaria sanguinalis” value in assay [2] is reported as 5 (Level 5: the growth inhibition rate is greater than 85%). Further, in assay [3], the “Activity level (growth inhibition rate), Abutilon theophrasti Medic.” value is 5 (Level 5: the growth inhibition rate is greater than 85%); the “Activity level (growth inhibition rate), Galium aparine” value is 5 (Level 5: the growth inhibition rate is greater than 85%); the “Activity level (growth inhibition rate), Monochoria Vaginalis” value is reported as 5 (Level 5: the growth inhibition rate is greater than 85%).
For `C#CCSC(=O)C(C)Oc1nc(F)c(Cl)c(N)c1Cl` (stereo not shown) [Compound 2-274], the “Activity level (growth inhibition rate), Echinochloa crusgalli” value in assay [1] is 5 (Level 5: the growth inhibition rate is greater than 85%). Further, the “Activity level (growth inhibition rate), Digitaria sanguinalis” value in assay [2] is 5 (Level 5: the growth inhibition rate is greater than 85%). In assay [3], the “Activity level (growth inhibition rate), Abutilon theophrasti Medic.” value is given as 5 (Level 5: the growth inhibition rate is greater than 85%); the “Activity level (growth inhibition rate), Galium aparine” value was 5 (Level 5: the growth inhibition rate is greater than 85%); the “Activity level (growth inhibition rate), Monochoria Vaginalis” value is 5 (Level 5: the growth inhibition rate is greater than 85%).
